In assay [1] the target is Mitogen-activated protein kinase kinase kinase 9 (Homo sapiens) (UniProt P80192). The assay can be described thus: Selectivity interaction (Kinase panel (Z-LYTE Assay)) EUB0001632a MAP3K9. The settings on record: at 10 µM.
In assay [2] the target is Phosphatidylinositol 4-kinase beta (Homo sapiens, UniProt Q9UBF8). Briefly: Selectivity interaction (KinomeScan (DiscoverX)) EUB0000607a PI4KB. The settings on record: at 10 µM.
The target of assay [3] is T1, Peripheral plasma membrane protein CASK (Homo sapiens) (UniProt O14936).
T1 sequence (whole entry): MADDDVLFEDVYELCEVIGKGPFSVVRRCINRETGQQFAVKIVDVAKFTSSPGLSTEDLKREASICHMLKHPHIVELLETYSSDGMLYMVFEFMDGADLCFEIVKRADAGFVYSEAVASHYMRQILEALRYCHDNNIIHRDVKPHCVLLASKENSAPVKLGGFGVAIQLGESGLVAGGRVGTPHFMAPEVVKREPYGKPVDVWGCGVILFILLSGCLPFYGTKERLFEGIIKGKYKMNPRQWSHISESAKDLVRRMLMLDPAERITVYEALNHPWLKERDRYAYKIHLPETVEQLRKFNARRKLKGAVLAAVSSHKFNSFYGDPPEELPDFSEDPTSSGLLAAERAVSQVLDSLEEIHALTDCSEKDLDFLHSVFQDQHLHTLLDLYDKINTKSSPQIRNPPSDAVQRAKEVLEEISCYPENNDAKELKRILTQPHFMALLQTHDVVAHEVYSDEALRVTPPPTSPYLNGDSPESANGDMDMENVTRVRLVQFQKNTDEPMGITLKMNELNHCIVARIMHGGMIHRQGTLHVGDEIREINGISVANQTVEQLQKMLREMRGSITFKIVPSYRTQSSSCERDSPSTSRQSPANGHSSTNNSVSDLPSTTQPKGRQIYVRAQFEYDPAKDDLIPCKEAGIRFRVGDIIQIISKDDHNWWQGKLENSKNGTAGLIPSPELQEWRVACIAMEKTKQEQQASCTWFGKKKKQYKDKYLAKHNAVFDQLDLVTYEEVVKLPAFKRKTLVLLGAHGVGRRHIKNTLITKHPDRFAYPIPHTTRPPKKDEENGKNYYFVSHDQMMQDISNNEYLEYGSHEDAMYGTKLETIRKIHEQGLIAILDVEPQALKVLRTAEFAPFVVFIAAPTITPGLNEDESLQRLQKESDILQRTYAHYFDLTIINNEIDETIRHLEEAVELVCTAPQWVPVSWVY
The assay can be described thus: Selectivity interaction (KinomeScan (DiscoverX)) EUB0001079a CASK. The settings on record: at 1 µM.

The target of assay [4] is Microtubule-associated serine/threonine-protein kinase 1 (Homo sapiens) (UniProt Q9Y2H9). Briefly: Selectivity interaction (KinomeScan (DiscoverX)) EUB0001619a MAST1. Conditions: at 1 µM.
For assay [5], the target named is Serine/threonine-protein kinase WNK3 (Homo sapiens) (UniProt Q9BYP7). Briefly: Selectivity interaction (KinomeScan (DiscoverX)) EUB0001619a WNK3. Conditions: at 1 µM.
Assay [6] deals with Mast/stem cell growth factor receptor Kit (Homo sapiens, UniProt P10721). Briefly: Selectivity interaction (Kinase panel (Invitrogen)) EUB0000639a KIT. The settings on record: at 200 nM.
Assay [7] has as its target Dual specificity mitogen-activated protein kinase kinase 2 (Homo sapiens) (UniProt P36507). Briefly: Selectivity interaction (KinomeScan (DiscoverX)) EUB0000695a MAP2K2. The settings on record: at 100 nM.
Assay [8] has as its target T2, Receptor-interacting serine/threonine-protein kinase 1 (Homo sapiens) (UniProt Q13546).
T2 sequence (whole entry): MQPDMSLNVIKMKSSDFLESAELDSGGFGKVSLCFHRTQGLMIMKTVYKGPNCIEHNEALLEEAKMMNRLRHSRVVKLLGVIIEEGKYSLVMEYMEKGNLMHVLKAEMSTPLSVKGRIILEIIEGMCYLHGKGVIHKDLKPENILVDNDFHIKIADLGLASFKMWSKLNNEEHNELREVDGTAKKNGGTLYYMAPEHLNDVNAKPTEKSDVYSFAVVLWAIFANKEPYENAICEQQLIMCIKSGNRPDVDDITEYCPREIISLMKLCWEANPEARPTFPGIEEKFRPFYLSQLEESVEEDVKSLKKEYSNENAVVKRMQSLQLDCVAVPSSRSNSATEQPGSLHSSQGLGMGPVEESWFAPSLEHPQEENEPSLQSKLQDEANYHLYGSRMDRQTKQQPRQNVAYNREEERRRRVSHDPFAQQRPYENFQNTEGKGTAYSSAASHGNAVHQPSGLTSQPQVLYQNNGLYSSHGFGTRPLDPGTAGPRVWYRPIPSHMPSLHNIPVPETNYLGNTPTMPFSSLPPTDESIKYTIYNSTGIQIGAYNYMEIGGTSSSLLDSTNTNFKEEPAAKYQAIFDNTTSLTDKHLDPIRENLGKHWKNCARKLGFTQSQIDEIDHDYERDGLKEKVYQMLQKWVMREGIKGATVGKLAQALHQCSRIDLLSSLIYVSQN
Briefly: Selectivity interaction (KinomeScan (DiscoverX)) EUB0000595a RIPK1. Conditions: at 10 µM.

Chain of Phosphatidylinositol 4-kinase beta (Q9UBF8 2-816 limits assumed): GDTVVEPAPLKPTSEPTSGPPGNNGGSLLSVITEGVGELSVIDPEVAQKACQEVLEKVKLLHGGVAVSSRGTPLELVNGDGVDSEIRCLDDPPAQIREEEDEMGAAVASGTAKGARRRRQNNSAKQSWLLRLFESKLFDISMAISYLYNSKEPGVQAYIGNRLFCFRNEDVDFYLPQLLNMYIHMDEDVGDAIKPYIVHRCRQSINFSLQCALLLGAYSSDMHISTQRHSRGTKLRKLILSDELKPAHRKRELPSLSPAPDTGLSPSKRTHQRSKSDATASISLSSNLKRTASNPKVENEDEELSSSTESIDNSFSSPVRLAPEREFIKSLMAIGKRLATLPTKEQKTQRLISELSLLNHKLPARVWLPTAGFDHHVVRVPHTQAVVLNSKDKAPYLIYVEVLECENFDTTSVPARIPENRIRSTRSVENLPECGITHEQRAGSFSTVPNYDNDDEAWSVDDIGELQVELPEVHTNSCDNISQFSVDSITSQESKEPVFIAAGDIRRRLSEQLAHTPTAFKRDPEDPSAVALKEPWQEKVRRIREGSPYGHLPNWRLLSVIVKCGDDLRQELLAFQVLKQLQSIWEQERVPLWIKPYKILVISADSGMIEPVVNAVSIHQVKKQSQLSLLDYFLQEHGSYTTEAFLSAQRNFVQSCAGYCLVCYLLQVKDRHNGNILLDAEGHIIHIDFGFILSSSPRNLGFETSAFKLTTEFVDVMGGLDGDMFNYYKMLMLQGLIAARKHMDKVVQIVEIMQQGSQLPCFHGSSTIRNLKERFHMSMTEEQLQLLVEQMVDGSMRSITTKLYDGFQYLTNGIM
Chain of Mast/stem cell growth factor receptor Kit (P10721 whole entry): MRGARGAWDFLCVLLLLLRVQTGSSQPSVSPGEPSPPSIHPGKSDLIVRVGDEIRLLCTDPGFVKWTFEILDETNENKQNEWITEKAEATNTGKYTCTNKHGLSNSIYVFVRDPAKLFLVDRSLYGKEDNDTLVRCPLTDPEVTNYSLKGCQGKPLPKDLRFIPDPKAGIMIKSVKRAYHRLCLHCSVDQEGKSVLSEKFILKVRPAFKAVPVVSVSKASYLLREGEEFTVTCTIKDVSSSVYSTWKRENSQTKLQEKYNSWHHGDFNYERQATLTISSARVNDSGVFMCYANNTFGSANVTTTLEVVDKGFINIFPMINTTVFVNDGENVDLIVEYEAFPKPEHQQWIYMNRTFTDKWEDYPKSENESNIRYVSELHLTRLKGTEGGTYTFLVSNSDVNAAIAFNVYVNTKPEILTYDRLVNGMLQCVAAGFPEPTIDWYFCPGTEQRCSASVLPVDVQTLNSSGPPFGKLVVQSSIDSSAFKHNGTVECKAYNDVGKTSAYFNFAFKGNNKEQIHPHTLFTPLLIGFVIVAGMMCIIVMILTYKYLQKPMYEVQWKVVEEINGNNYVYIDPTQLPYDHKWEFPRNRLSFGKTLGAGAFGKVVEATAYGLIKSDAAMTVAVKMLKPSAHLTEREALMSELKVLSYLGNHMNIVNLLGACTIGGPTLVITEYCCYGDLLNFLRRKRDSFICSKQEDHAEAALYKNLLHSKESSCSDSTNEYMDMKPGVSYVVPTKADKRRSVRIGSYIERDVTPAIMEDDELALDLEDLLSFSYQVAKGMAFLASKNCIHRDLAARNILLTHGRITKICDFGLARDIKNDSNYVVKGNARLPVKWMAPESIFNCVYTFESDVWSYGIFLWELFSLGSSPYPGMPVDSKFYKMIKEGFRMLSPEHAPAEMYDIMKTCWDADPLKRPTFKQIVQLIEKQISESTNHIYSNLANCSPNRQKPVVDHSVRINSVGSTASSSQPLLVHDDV
Chain of Microtubule-associated serine/threonine-protein kinase 1 (Homo sapiens) (Q9Y2H9 whole entry, looked up): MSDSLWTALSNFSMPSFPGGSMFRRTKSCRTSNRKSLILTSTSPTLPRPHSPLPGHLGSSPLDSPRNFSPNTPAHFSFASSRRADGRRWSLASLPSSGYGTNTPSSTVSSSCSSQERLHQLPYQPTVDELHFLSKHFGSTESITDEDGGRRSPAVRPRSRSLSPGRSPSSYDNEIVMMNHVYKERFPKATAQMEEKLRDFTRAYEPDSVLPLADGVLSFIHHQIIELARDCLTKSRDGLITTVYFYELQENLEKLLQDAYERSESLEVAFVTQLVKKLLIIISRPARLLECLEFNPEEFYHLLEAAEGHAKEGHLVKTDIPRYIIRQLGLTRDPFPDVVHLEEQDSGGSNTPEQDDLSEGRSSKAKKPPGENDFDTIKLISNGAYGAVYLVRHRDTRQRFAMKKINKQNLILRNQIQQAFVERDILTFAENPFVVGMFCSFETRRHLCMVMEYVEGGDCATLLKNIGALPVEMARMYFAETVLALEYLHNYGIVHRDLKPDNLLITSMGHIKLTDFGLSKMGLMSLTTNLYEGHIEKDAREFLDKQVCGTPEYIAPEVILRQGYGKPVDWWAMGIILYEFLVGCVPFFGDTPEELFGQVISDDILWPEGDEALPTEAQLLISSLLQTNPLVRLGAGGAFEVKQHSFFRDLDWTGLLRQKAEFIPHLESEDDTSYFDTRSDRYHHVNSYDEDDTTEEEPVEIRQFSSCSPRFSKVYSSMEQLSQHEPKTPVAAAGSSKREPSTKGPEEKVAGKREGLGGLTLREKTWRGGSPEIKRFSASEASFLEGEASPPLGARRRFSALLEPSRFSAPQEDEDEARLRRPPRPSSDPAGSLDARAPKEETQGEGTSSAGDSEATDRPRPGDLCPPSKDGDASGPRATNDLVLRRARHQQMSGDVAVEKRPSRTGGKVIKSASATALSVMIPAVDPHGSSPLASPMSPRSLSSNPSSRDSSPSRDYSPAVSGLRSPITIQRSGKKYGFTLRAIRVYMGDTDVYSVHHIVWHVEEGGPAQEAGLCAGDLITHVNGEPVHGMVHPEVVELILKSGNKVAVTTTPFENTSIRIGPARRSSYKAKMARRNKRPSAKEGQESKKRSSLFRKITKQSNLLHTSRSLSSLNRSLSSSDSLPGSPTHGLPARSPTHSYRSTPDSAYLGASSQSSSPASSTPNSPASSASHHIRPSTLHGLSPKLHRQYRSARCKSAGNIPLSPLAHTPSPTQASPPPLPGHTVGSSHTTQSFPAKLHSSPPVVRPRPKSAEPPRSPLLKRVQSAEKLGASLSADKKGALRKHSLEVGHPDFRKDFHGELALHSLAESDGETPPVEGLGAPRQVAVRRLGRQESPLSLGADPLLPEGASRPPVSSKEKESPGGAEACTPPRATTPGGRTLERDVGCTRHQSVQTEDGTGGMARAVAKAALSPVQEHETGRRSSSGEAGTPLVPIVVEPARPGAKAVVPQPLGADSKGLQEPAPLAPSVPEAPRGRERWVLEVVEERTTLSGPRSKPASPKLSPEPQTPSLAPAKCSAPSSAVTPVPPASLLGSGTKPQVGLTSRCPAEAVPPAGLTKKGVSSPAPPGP
Chain of Mitogen-activated protein kinase kinase kinase 9 (Homo sapiens) (P80192 whole entry, looked up): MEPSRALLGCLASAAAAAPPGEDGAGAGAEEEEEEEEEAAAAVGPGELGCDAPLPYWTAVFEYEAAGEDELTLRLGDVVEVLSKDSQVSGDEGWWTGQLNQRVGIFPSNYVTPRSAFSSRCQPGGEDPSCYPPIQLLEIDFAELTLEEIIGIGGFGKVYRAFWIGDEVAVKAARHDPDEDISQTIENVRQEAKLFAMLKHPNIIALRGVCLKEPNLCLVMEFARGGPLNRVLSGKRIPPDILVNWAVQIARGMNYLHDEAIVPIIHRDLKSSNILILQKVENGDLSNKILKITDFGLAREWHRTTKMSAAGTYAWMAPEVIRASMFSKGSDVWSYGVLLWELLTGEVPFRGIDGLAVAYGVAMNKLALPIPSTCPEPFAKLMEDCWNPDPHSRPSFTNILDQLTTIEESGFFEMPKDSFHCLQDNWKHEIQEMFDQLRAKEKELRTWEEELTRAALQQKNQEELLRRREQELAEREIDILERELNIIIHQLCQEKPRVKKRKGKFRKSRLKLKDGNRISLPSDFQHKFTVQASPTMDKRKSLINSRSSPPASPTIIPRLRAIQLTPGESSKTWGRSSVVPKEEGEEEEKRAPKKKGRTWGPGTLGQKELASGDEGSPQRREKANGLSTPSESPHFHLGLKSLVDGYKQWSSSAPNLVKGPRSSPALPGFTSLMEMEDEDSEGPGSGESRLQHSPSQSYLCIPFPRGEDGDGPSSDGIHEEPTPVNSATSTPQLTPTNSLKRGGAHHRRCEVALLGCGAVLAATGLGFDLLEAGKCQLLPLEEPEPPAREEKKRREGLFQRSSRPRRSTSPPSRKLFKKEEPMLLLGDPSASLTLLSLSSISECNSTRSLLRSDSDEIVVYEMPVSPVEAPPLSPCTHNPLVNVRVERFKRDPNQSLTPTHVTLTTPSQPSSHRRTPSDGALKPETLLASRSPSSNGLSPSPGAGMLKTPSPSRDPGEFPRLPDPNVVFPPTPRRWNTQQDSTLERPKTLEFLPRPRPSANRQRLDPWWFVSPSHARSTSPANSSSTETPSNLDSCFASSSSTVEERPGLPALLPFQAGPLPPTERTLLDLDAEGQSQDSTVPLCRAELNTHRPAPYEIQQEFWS
Chain of Dual specificity mitogen-activated protein kinase kinase 2 (Homo sapiens) (P36507 whole entry): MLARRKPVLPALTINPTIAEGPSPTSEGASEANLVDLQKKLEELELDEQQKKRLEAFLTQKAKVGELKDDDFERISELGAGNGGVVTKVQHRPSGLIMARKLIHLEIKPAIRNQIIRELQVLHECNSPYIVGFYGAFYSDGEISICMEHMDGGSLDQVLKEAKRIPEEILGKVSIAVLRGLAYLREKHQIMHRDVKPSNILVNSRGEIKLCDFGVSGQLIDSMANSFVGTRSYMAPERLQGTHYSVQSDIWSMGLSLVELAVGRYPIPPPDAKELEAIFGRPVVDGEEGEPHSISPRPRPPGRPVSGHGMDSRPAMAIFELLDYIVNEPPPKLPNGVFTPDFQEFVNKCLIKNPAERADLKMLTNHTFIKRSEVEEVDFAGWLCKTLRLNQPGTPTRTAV

On to `Cn1cc(-n2cnc3c(NCc4nc5cc(Cl)c(Cl)cc5[nH]4)nc(N4CCOCC4)nc32)cn1`, for which the % of control in assay [1] is -5.34%.

Take `CNC(=O)Nc1ccc(-c2nc(N3CC4CCC(C3)O4)c3cnn(C4CCC5(CC4)OCCO5)c3n2)cc1`: the % of control in assay [2] stood at 100%.

`Nc1cnc(N2CCc3cc(S(=O)(=O)Nc4c(F)cc(Cl)cc4F)cc(N4CCCC4=O)c32)nc1` [TP-020n]: the % of control in assay [3] turned out to be 94%.

In the case of `N#Cc1cccc(-c2c[nH]c3ncnc(N4CCOCC4)c23)c1`, the results for the % of control in assay [4] and in assay [5] were 73% and 100%, respectively.

Regarding `CC[C@@H]1[C@H](F)C(=O)N[C@@H]1COc1nccc2cc(C(N)=O)c(OC)cc12` [ZIMLOVISERTIB], the % of inhibition in assay [6] was 2.99%.

As to `Cc1cc(F)c(C(=O)Nc2cccc(-c3nncn3C(C)C)n2)cc1-n1cnc(C2CC2)c1`, the % of control in assay [7] was found to be 97%.

For `COCC(=O)NC/C=C/c1ccc2ncnc(Nc3ccc(Oc4ccc(C)nc4)c(C)c3)c2c1` [CP-724714], the % of control in assay [8] was 100%.

The values above are taken from ChEMBL document CHEMBL5465560, “Selectivity Literature for EUbOPEN Chemogenomic Library” (2024).
